Experimental data published in PMC9497102, “Thiosemicarbazone Derivatives Developed to Overcome COTI-2 Resistance” (Cancers, 2022).

Key:
SW480/Tria cells = assay: MTT viability assay, 72 h; type: cell-based, human; conditions: for IC50: Homo sapiens, SW480, 72 h, MTT; for Relative Resistance SW480/Tria: IC50 of resistant subline divided by IC50 of parental SW480
Procedure: (§1) In vitro tests were performed with human colorectal cancer SW480 cells (purchased from the American Type Culture Collection, Manassas, VA, USA), SW480/Tria, and the SW480/Coti cells, which are previously established sublines that are resistant to Triapine and COTI-2 [16], respectively. Additionally, small-cell lung carcinoma GLC-4 and its subline GLC-4/adr, which is a doxorubicin-resistant subline overexpressing ABCC1 (purchased from Dr. […], Groningen, The Netherlands), were used. All cells were maintained in a humidified 5% CO2 incubator at 37 °C and grown in minimal essential medium or RPMI-1640, respectively, supplemented with 10% fetal bovine serum (FBS). In order to maintain the resistant phenotype of GLC-4/adr cells, they were selected with doxorubicin (1152 nM) once a month. All cell lines were tested for mycoplasma contamination. For the cytotoxicity, cell viability, and proliferation studies, the 3-(4,5-dimethylthiazol-2-yl)-2,5-diphenyltetrazolium bromide (MTT) assay was utilized. Cells were seeded in 96-well plates at a density of 2 × 10^4 cells/well, with the exception of SW480/Tria, which was used at a density of 3 × 10^4 cells/well. After 24 h of recovery, cells were treated with the indicated concentration of drugs. For the drug combination experiments, verapamil and cyclosporine A (CSA) were used as ABCC1 modulators, and tetrathiomolybdate (TTM) was used as a copper chelator. The TSCs were dissolved in DMSO followed by subsequent dilutions in the medium in order to maintain a final DMSO concentration of <1%. After 72 h, the treatment solution was removed and replaced with 100 μL of MTT solution (EZ4U, Biomedica, Vienna, Austria), which was diluted 1:10 in the growth medium. A TECAN Infinite 200 Pro plate reader was used to measure the absorbance of the solution after 2-3 h incubation at 5% CO2 in an incubator at 37 °C. The anticancer activity was determined with GraphPad Prism software and indicated as IC50 values (half maximum inhibitory concentration).

SW480 cells [1] = assay: MTT viability assay, 72 h; type: cell-based, human; conditions: for IC50: Homo sapiens, SW480, MTT; for enhancement of cytotoxicity by copper complexation: copper complex vs. ligand
Procedure: as §1

[2] = Iron(III) complex formation, UV-vis spectrophotometric titrations; type: physicochemical; conditions: for pFe(III)*: Fe(III) hydroxido species also considered as unbound metal, cFe = 1 μM; for pFe(III)* / pFe(III): cL = 10 μM, pH = 7.40; for pFe(III): –log[free Fe(III)] calculated at cFe = 1 μM
Procedure: (§2) The UV-vis spectra were recorded using an Agilent Cary 8454 diode array spectrophotometer in the 200 to 950 nm window, and the path length was varied between 1 and 5 cm, depending on the solubility (thus the applicable concentration). For the spectrophotometric titrations, the same instruments (Metrohm 665 Dosimat burette, Orion 710A pH-meter, Metrohm combined pH glass electrode) and experimental setup (ionic strength: 0.10 M (KCl); titrant: 0.10 M carbonate-free KOH solution in 30% (v/v) DMSO/H2O; samples: prepared in 30% (v/v) DMSO/H2O; calibration: method of Irving et al.; pH range: 1.0 to 13.5; and sample volume: 10 cm^3) were used as in our previous work. Argon overpressure was used for the Fe(II)-containing samples when the Fe(II) stock solution was added to the samples in tightly closed titration vessels, which were previously completely deoxygenated (for 20 min). Measurements were taken with ligands (10–80 μM, depending on solubility) in the presence of 1, 0.5, and 0.3 equiv. of Cu(II), Fe(II), and Fe(III) ions. Equilibrium constants, such as the proton dissociation constants (pKa) of the ligands, the overall stability constants (logβ) of the metal complexes, and the UV-vis spectra of the individual ligand or complex species were computed using the program PSEQUAD [18], as was the case in our previous works.

[3] = Copper(II) complex formation, UV-vis titrations and EDTA competition; type: physicochemical; conditions: for pCu: calculated at cM = 1 μM, cL = 10 μM, pH = 7.40; for logβ5.9′ [CuL]^+: conditional stability constant, EDTA competition at pH = 5.90; for logβ [CuL]^+: β = β’ × αH, [H+] = 10^–5.90 M
Procedure: as §2
The conditional stability constants (β’) of the Cu(II) complexes were calculated from competition reactions with EDTA at pH = 5.9 using MES (50 mM) when the metal:ligand ratio was 1:1 (clig = cCu between 10 and 80 μM). Individual samples were prepared in which the ligand:EDTA ratio was variable between 1:0 and 1:50. After a 3 h incubation period, UV-vis spectra were collected. The calculation of the β’ (CuL) values was performed following the same method as that in our previous work using the logβ’5.90 = 13.89 of complex [Cu(EDTA)]^2− obtained from the previously reported equilibrium constants of EDTA and its Cu(II) complex.

SW480 cells [4] = assay: Cell cycle analysis by PI staining and flow cytometry; type: cell-based, human; conditions: 24 h
Procedure: The cell cycle phases were analyzed by staining the DNA of ethanol-fixed cells with PI, as previously described. SW480 and SW480/Coti cells were seeded at a density of, 2 × 10^5 cells/well in 6-well plates and treated with the indicated concentrations of COTI-2 and COTI-NMe2 for 24 h. Then, cells were collected by trypsinization and fixed in cold 70% ethanol. In order to digest RNA, the cells were treated with RNase (0.2 mg/mL, Sigma) and, subsequently, DNA was stained with PI (1 µg/mL). Fluorescence was measured by flow cytometry (FACS Calibur, Becton Dickinson, Ashland, CA, USA) and cell cycle phases were analyzed using Cell Quest Pro software.

SW480 cells [5] = assay: Mitotic nuclei by DAPI staining; type: cell-based, human; conditions: 24 h
Procedure: In order to detect mitotic nuclei, fixed cells were stained with DAPI. SW480 and SW480/Coti cells were seeded at a density of 2 × 10^5 cells per well in 6-well plates and left to recover for 24 h. This was followed by drug treatment at the indicated concentrations for 24 h. Then, cells were collected and spun on slides by centrifugation with a Thermo Scientific Cytospin 4 (400 rpm, 5 min at 4 °C). The slides were dried, and the cells were fixed with a methanol/acetone (1:1) mixture at −20 °C and stained with a solution containing DAPI (1 µg/mL). A final washing step with phosphate-buffered saline (PBS) was performed, followed by covering the slides with vectashield (H-100, Vector Laboratories, Inc., Newark, CA, USA) and coverslips. Mitotic nuclei were counted with Image J in three different areas per slide from three independent experiments.

[6] = T = 25.0 °C, I = 0.10 M (KCl), 30% (v/v) DMSO/H2O

| IC50 (SW480/Tria cells) | IC50 (SW480 cells [1]; 72 h) | pFe(III)* [2] | logβ [Fe(III)L2]^+ [2, 6] | logβ [Fe(III)L]^2+ [2, 6] | pFe(III) [2] | pCu [3] | logβ5.9′ [CuL]^+ [3] | logβ [CuL]^+ [3] | lower IC50 value than the other tested COTI-2 derivatives (SW480 cells [1]; SW480 cells) | lower IC50 value than COTI-2 (SW480 cells [1]; SW480 cells, 72 h) | logβ [Fe(III)LH]^3+ [2, 6] | free ligand in the presence of iron(III) ([2]; calculated distribution, 1 µM COTI-2, 2:1 ligand:iron(III), pH 7.4) | Compound | Relative Resistance SW480/Tria (SW480/Tria cells) | enhancement of cytotoxicity by copper complexation (SW480 cells [1]; SW480 cells, 72 h) | effect on G2/M population (SW480 cells [4]) | effect on mitotic cell fraction (SW480 cells [5]) |
| --- | --- | --- | --- | --- | --- | --- | --- | --- | --- | --- | --- | --- | --- | --- | --- | --- | --- |
| 710 ± 170 nM | 640 ± 100 nM | 9.9 | 32.20 ± 0.03 | 17.06 ± 0.02 | 18.0 | 15.0 | 12.56 ± 0.09 | 19.08 |  |  |  |  | CN(C(=S)N/N=C1\CCCc2cccnc21)C1CCCCC1 [COTI-NMeCy, N-Cyclohexyl-2-(6,7-dihydroquinolin-8(5H)-ylidene)-N^4-methylhydrazine-1-carbothioamide] | 1.1 ^n.s. | 7–8 fold |  |  |
| 40 ± 20 nM | 40 ± 10 nM | 11.1 | 32.77 ± 0.03 | 17.25 ± 0.02 | 19.2 | 14.7 | 12.23 ± 0.05 | 18.42 | ~ 10 fold | 11 fold |  |  | CN(C)C(=S)NN=C1CCCc2cccnc21 (mixture of isomers) [COTI-NMe2, 2-(6,7-Dihydroquinolin-8(5H)-ylidene)-N^4,N^4-dimethylhydrazine-1-carbothioamide] | 1.0 ^n.s. |  | significant reduction in the G2/M population | (complete) loss of the mitotic cell fraction |
|  | 370 ± 170 nM | 10.6 | 29.98 ± 0.06 | 18.02 ± 0.03 | 18.6 | 15.6 | 13.06 ± 0.02 | 18.19 |  |  | 21.16 ± 0.03 | 10–20% | S=C(N/N=C1\CCCc2cccnc21)N1CCN(c2ccccn2)CC1 [COTI-2, 4-(pyridine-2-yl)-N-([(8E)-5,6,7,8-tetrahydroquinolin-8-ylidene]amino)piperazine-1-carbothioamide] | 1.1 ^n.s. | 7–8 fold | significant reduction in the G2/M population | (complete) loss of the mitotic cell fraction |
